Data set [1] has as its system A549 cells. Kind of data set: Proliferation of A549 cells (cell counts after 72 h / 3 days). It is filed as cell-based, human. The note with it: 500 μM added to culture medium; cells counted after 3 days (72 h). The method, then:
FIG. 1. Effect of L- and D-Cysteine, each tested at 500 microM, on the proliferation of A549 cells. Cells were counted 3 days after addition of L- or D-Cysteine. (CM=culture medium)
A549 lung tumor cells (FIG. 5A) or BEAS-2B normal bronchial epithelial cells (FIG. 5B) were cultured in complete media (CM) in the absence or presence of 500 μM D-cysteine (D-Cys). Cell numbers were analyzed after 72 h and after splitting of cells (p1). Cell numbers are expressed as % of cells cultured in the absence of D-cysteine. **** P<0.0001.
(§1) We therefore decided to test whether the D-cysteine-mediated inhibition of OCR could affect cell growth in a regular normal medium complemented with fetal calf serum. Most culture media used for cell culture contain 300 μM L-cystine. […] Importantly, some cancer cell lines, including HeLa cells (FIG. 4A), the MPM cell line H2052/484 (FIG. 4B), and osteosarcoma cell line 143B (not shown), were insensitive both in 2D cultures or in colony formation assays. The decrease in numbers of cells seen after 72 h exposure to D-cysteine was due to decreased cell proliferation. […] Importantly, in contrast to the results with cancer cells, normal human bronchial epithelial BEAS-2B cells were resistant to D-cysteine exposure even at very high concentration (FIG. 5B).

Data set [2] concerns BZR tumorigenic bronchial epithelial cells. The experiment in a line: Colony formation / proliferation, BZR. It is filed as cell-based. The settings on record: colony formation assays or spheroids. On the procedure: (§2) FIGS. 4A-4D: D-cysteine affects tumor cell viability. Colony formation assays in presence or absence 0.1 mM D-cysteine (D-Cys) for 2 weeks. FIG. 4A: Lung tumor cell lines+cervix cell line (HeLa). FIG. 4B: MPM cell lines. FIG. 4C: A549. FIG. 4D: LuCa62 spheroid formation in presence or absence of 0.1 mM, 0.2 mM or 0.5 mM D-cysteine for 17 days.
as §1

Data set [3] has as its system cell lines derived from malignant pleural mesothelioma (MPM). The experiment in a line: Colony formation, MPM cell lines. In kind it is cell-based. The settings on record: colony formation assays or spheroids. The method, then: as §2, §1
The test system of data set [4] is HeLa cells. The experiment in a line: 2D culture / colony formation, HeLa. The note with it: 2D cultures or colony formation assays. In kind it is cell-based. On the procedure: as §2, §1
Data set [5] concerns MPM cell line H2052/484. The experiment in a line: 2D culture / colony formation, H2052/484. In kind it is cell-based. The settings on record: 2D cultures or colony formation assays. On the procedure:
as §2, §1

The test system of data set [6] is osteosarcoma cell line 143B. Kind of data set: 2D culture / colony formation, 143B. It is filed as cell-based. The settings on record: 2D cultures or colony formation assays; not shown. The method, then: as §1
The test system of data set [7] is A549 cells. The experiment in a line: Oxidized (GSSG) and total (GSH) glutathione levels in A549 cells. In kind it is cell-based, human. The note with it: 500 μM, 72 h. On the procedure:
(§3) A549 cells were cultured for 72 h in complete medium (CM) with or without 500 μM D-cysteine (D-Cys) and different cellular characteristics were analyzed. FIG. 8A: Oxidized (GSSG) and total (GSH) glutathione levels. FIG. 8B: Mitochondrial ROS production by MitoSOX staining. FIG. 8C: Lipid peroxidation by Bodipy C11 staining. MFI=Mean of Fluorescence Intensity (Flow cytometry). * P<0.05.
(§4) We first tested whether D-cysteine could trigger ferroptosis. Ferroptosis is a type of death due to iron-mediated ROS production and lipid peroxidation. In most cases, it is triggered by decreased glutathione levels.

In data set [8] the test system is A549 cells. The experiment in a line: Mitochondrial ROS production by MitoSOX staining. In kind it is cell-based, human. The note with it: 500 μM, 72 h. On the procedure:
as §3, §4

The test system of data set [9] is A549 cells. The experiment in a line: Iron concentration in A549 cells by ICP-MS. It is filed as cell-based, human. The settings on record: 72 h. On the procedure:
FIG. 3. Iron concentration in A549 cells cultured in the presence or absence of D-Cysteine for 72 h. Iron was measured using ICP-MS (Inductively coupled plasma mass spectrometry).
Moreover, D-cysteine could also trigger ferritinophagy, which is a process triggered in cells lacking iron. The most likely explanation is that D-cysteine, which accumulates in cells since it is not consumed during protein synthesis or other pathways, can react with iron through its thiol group, thus acting as an iron chelator. […] As a consequence, intracellular iron is depleted, and cells trigger ferritinophagy releasing ferric iron, thus leading to ROS production, lipid peroxidation and cell death.

For data set [10], the system named is A549 cells. The experiment in a line: Mitochondrial respiration (OCR) of A549 cells. The note with it: 500 μM, 72 h. In kind it is cell-based, human. On the procedure:
FIG. 9: D-cysteine impairs mitochondrial respiration of lung tumor cells. A549 cells were cultured for 72 h in complete media (CM) supplemented or not with 500 μM D-cysteine (D-Cys), and oxygen consumption rate (OCR) was quantified both before (basal respiration) and after sequential addition of oligomycin and FCCP (maximal respiration).

Data set [11] in a line: D-cysteine quantification in blood (serum) of mice after gavage. It is filed as in vivo. The settings on record: 500 mg/kg by gavage, no DAAO inhibitor, data not shown. The method, then:
As described below, we have initiated experiments in which we administer D-cysteine (500 mg/kg) by gavage, and using the technique described in^37, we have measured the levels of D-cysteine in serum. […] We reasoned that the enzyme D amino oxidase (DAAO), which is known to oxidize D-amino acids and which in mice is highly expressed in the kidney, could explain the rapid clearance of D-cysteine from the blood. We therefore co-administered D-cysteine with an inhibitor of DAAO (JHU 1377). Using this protocol, we achieved higher levels of D-cysteine in the blood (Table 2) and indeed levels higher than that needed to repress tumor cell growth in vitro. Thus far we have only assessed the pharmacokinetics of D-cysteine during the first 6 h following administration. In future experiments we plan to repeat the analysis over longer time periods.
DAAO inhibitor JHU 1377 (30 mg/kg) was injected into mice, followed 2 h later by D-cysteine gavage (500 mg/kg). Blood was collected after 2, 4, and 6 h and levels of L- and D-cysteine were quantified in the serum.

The test system of data set [12] is MDA-MB-231 breast cancer cells. The experiment in a line: Proliferation of MDA-MB-231 cells with D-cysteine and 3-MST inhibitor HMPSNE. It is filed as cell-based. The note with it: D-cysteine 100 μM and/or HMPSNE. The method, then:
A549 lung tumor cells (FIG. 10A) or MDA-MB-231 breast tumor cells (FIG. 10B) were cultured in complete media (CM) in the absence or presence of 100 μM D-cysteine (D-Cys), with (grey bars) or without (black bars) HMPSNE, a cell-membrane permeable inhibitor of 3-MST. Cell numbers were counted after 72 hours. * P<0.05, ** P<0.01, *** P<0.001, **** P<0.0001.
Furthermore, as mentioned above, it exerts toxic effects via iron chelation. Therefore, to survive D cysteine, cells need to increase its catabolism. There are two main pathways for cysteine catabolism: one is via its enzymatic breakdown to produce hydrogen sulfur and organic intermediates that will serve as carbon sources, and the second is via oxidative metabolism through cysteine dioxygenase 48. Inhibition of cysteine catabolism can be obtained with inhibitors of the key enzymes participating in this pathway. We have used a commercially available inhibitor of 3-MST, HMPSNE 49 to inhibit the enzyme in A549 lung cancer cells and in MDA-MB-231 breast cancer cells in the presence or absence of D cysteine.

The results in this text go back to patent US20240016772A1, “Compositions And Methods Comprising D-Cysteine Or A D-Derivative Thereof” (UNIVERSITE DE GENEVE, priority 2020, published 2024).

“Also recorded” adds a separate entry of the source.

Take `N[C@H](CS)C(=O)O` [D-cysteine]: the “proliferation of A549 cells” value in [1] was “inhibited the proliferation; also recorded: impairs proliferation of tumor cells”. In data set [2], the “antiproliferative effect, BZR” value was “antiproliferative effect”. Further, the “antiproliferative effect, MPM-derived cell lines” value in data set [3] is given as “antiproliferative effect”. Besides, the “sensitivity of HeLa cells” value in data set [4] is on record as “insensitive”. Moreover, in data set [5], the “sensitivity of MPM cell line H2052/484” value is given as “insensitive”. Further, the “sensitivity of osteosarcoma cell line 143B” value in data set [6] is given as “insensitive”. For the same molecule, in data set [7], the glutathione levels entry was “did not induce a drop in glutathione”. In [8], the “mitochondrial ROS production” value is given as “induced ROS production; also recorded: induces an increase”. The “cellular iron (ICP-MS)” value in data set [9] is on record as “decrease in cellular iron”. Besides, in [10], the basal oxygen consumption result is listed as “strongly impaired”. For the same molecule, the maximal oxygen consumption result in data set [10] (after oligomycin and FCCP) is reported as “strongly impaired”. For the same molecule, in data set [11], the “initial level of D-cysteine in the blood” value was “around 200 μM”. Also, the concentration at 2 h in [11] (mouse, serum, oral, read-out: level of D-cysteine in the blood within the first 2 h) stood at 5 µM. The “cell proliferation (cell numbers after 72 hours), MDA-MB-231” value in data set [12] was “did not significantly alter the growth”.
